Series [1] has as its system TMD-8. The series is described as follows: 72 hr CellTiter-Glo, DLBCL cell line. Format: cell-based. As to conditions: Homo sapiens, TMD8.
Series [2] has as its system THP-1. In words: 72 hr CellTiter-Glo, AML cell line. The class given is cell-based. As to conditions: Homo sapiens.
Series [3] concerns Kasumi-1. The series is described as follows: 72 hr CellTiter-Glo, AML cell line. Format: cell-based. As to conditions: Homo sapiens.
In series [4] the target is T1, SPIB to RHA (Homo sapiens, UniProt Q01892).
T1 construct: endogenous in cells
T1 sequence (Q01892 whole entry): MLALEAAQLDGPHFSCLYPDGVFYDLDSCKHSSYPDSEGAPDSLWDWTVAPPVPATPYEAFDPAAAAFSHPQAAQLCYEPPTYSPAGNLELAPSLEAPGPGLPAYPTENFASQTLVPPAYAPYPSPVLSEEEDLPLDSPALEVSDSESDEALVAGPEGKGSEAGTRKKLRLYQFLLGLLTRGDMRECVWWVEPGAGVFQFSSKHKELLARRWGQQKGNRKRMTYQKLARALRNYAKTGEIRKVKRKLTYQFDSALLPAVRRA
In words: Co-IP of SPIB with helicases in ABC DLBCL cell lines. Format: cell-based. As to conditions: 500 nM, 4-10 h. The text has this:
With the aim to understand the mechanism of action of YK-4-279 and TK-216, the baseline RNA expression levels of the different ETS factors were correlated with sensitivity to the drugs. SPIB was the gene presenting the most significant negative correlation with both YK-4-279 and TK-216, especially among the ABC DLBCL cell lines (P<0.05). SPIB is a known oncogene for ABC DLBCL (Lenz et al, PNAS 2008) and is involved in the response to lenalidomide in ABC DLBCL (Yang et al, Cancer Cell 2012). YK-4-279 inhibits the binding of EWS1-FLI1 to the helicases RHA and DDX5 (Selvanathan et al, PNAS 2012). Thus, it was assessed whether YK-4-279 and TK-216 can have a similar effect on SPIB and whether they induce cellular effects similar to lenalidomide. […] In ABC DLBCL, the ETS inhibitor YK-4-279 and its clinical derivative TK-216 interfere with SPIB and helicases involved in RNA editing. Moreover, both compounds act similarly to lenalidomide inhibiting IRF4 and upregulating IRF7 and synergize with the IMID in both ABC DLBCL and MCL.

Series [5] concerns 56 lymphoma cell lines. The series is described as follows: MTT proliferation, 56 lymphoma cell lines, 72 h. Format: cell-based. As to conditions: 95% C.I.: 367-506, read-out: median IC50. The procedure: (§1) 56 lymphoma cell lines [27 diffuse large B cell lymphoma (DLBCL); 10 mantle cell lymphoma; 6 marginal zone lymphoma; 5 anaplastic large T-cell lymphoma; 8 others] were exposed to TK-216 increasing doses for 72 h using a Tecan D300e Digital Dispenser and 384 well plates. Cell proliferation was measured with MTT. In vivo study was done in NOD-SCID mice; treatments were started with approximately sc 60 mm3 tumor volumes. Sensitivity was not affected by the lymphoma cell of origin (B vs T; activated B cell type DLBCL versus germinal center type DLBCL) or MYC and TP53 status. There was a non-statistically significant trend for lower sensitivity in cell lines bearing BCL2 chromosomal translocation (P=0.07, DLBCL only; P=0.06, all cell lines).

Series [6] relates to TMD8 cells xenografts. In words: TMD8 ABC-DLBCL xenograft in NOD-SCID mice. As to conditions: 100 mg/Kg, BID. The class given is in vivo. The procedure:
NOD-Scid mice subcutaneously inoculated with TMD8 cells (15×10^6) were split in two groups respectively treated with TK-216 (100 mg/kg, BID, po, n=9) and control vehicle (n=10). In each box-plot, the line in the middle of the box represents the median and the box extends from the 25th to the 75th percentile (interquartile range, IQ); the whiskers extend to the upper and lower adjacent values (i.e., ±1.5 IQ).
as §1
The latter synergism could be linked to the previously mentioned negative trend between TK-216 IC50 values and the presence of BCL2 translocation.
(§2) Cell lines were exposed to YK-4-279 or TK-216, alone or in combination with other compounds, for 72 h using a Tecan D300e Digital Dispenser and 96 well plates. Cell proliferation was measured with MTT. Synergy was determined with the Chou-Talalay combination index. Gene expression profiling (GEP) was performed with the Illumina HumanHT 12 Expression BeadChips. In vivo studies were done in NOD-SCID mice and treatments started with 60 mm3 tumor volumes sc.

For series [7], the system named is two MCL cell lines. The series is described as follows: Combination with lenalidomide in MCL cell lines. The class given is cell-based. The protocol: as §2
Since lenalidomide is active in mantle cell lymphoma (MCL), the synergism of the combination of TK-216 and lenalidomide was confirmed also in two MCL cell lines.

In series [8] the test system is OCI-Ly18. The series is described as follows: 72 hr CellTiter-Glo, DLBCL cell line. As to conditions: Homo sapiens. The class given is cell-based.
The test system of series [9] is MOLM-13. The series is described as follows: 72 hr CellTiter-Glo, AML cell line. Format: cell-based. As to conditions: Homo sapiens.
Series [10] concerns HBL-1. The series is described as follows: 72 hr CellTiter-Glo, DLBCL cell line. The class given is cell-based. As to conditions: HBL1.
Series [11] has as its system EWS-FLI1 and RNA helicase A. The series is described as follows: EWS-FLI1 protein interaction (FLI1 immunoprecipitation in A4573). As to conditions: preclinical potency model. Format: binding. The text has this:
TK216 is a first in class, small molecule that directly binds EWS-FLI1 inhibiting the biological activity of ETS-family transcription factor oncoproteins and is currently under clinical investigation in patients with Ewing sarcoma.
FLI1 was immunoprecipitated following treatment with TK216 or DMSO control in A4573 (see FIG. 2).

Series [12] concerns DOHH2. The series is described as follows: 72 hr CellTiter-Glo, DLBCL cell line. Format: cell-based. As to conditions: Homo sapiens, DOHH-2.
Series [13] relates to U2932. In words: 72 hr CellTiter-Glo, DLBCL cell line. Format: cell-based. As to conditions: Homo sapiens.
In series [14] the test system is DLBLC cell lines (TMD8, HBL1, U2932). In words: Dose-effect testing in combination with venetoclax. The class given is cell-based. An excerpt:
In each of FIGS. 13-15, the top curve (×) was for the combination therapy, the middle curve (⊚) was for TK216, and the bottom curve (+) was for venetoclax. FIG. 13 is a dose-effect curve for TK216 in combination with venetoclax in the TMD8 cell line. FIG. 14 is a dose-effect curve for TK216 in combination with venetoclax in the U2932 cell line. FIG. 15 is a dose-effect curve for TK216 in combination with venetoclax in the HLB1 cell line.

In series [15] the test system is DLBCL cell lines. The series is described as follows: Apoptosis by cleaved-Caspase 3 detection. The class given is cell-based. As to conditions: various concentrations, 18 h. The procedure: Cells were treated with various concentrations of TK216 for 18 h and apoptosis was assessed by detection of cleaved-Caspase 3.
Series [16] relates to TMD-8 tumors. In words: TMD-8 DLBCL-ABC xenograft model in nude mice. Format: in vivo. The protocol: The anti-tumor activity of TK216 was assessed in nude mice harboring TMD-8 tumors, a DLBCL-ABC xenograft model. TK216 was administered orally as a solution at 100 mg/kg BID for 13 days.
Series [17] concerns myeloid cell lines (HL-60, Kasumi-1, ML-2, MOLM-13, MOLM-16, and THP-1). The series is described as follows: Viability and apoptosis in myeloid cell lines. Format: cell-based. An excerpt: TK216 also had anti-proliferative effects, causes cell cycle arrest, and induces apoptosis in a panel of AML and DLBCL cell lines with deregulated ETS family members. […] In vivo efficacy studies in xenograft models of DLBCL indicated anti-tumor activity consistent with in vitro findings, confirming the utility and efficacy of TK216 in the treatment of AML and DLBCL by targeting the aberrant expression and translocations in the ETS-family of transcription factors, which contribute to the pathogenesis of the disease.

For the compound `O=C(CC1(O)C(=O)Nc2c(Cl)ccc(Cl)c21)c1ccc(C2CC2)cc1` (centres unmarked) [TK216, 4,7-Dichloro-3-(2-(4-cyclopropylphenyl)-2-oxoethyl)-3-hydroxyindolin-2-one], the IC50 in series [1] turned out to be 152 nM; in series [2] it was 152 nM; in series [3], 393 nM; in series [5] it was 449 nM; in series [8] it was 95 nM; in series [9], 228 nM. For the same compound, the results for the IC50 in series [10], in [12] and in series [13] were 304 nM, 160 nM and 127 nM, respectively. In addition, the “binding of SPIB to RHA” value in series [4] is listed as “decreased”. In addition, the “reduction in tumor volume at D11” value in series [6] (D11, P<0.01 vs control group) is “four-times”. Further, the “tumor growth compared with control group” value in series [6] (n=9) was “reduction in tumor growth”. For the same compound, the “combination of TK-216 and lenalidomide” value in [7] is listed as “synergism”. For the same compound, the “binding between EWS-FLI1 and RNA helicase A” value in [11] is reported as “blocked the binding”. In addition, in series [14], the “combination effect with venetoclax, dose-effect” value is listed as “synergistic effect across doses”. Besides, in series [15], the “apoptosis (cleaved-Caspase 3)” value is recorded as “induced apoptosis”. The same compound registered a tumor growth inhibition in series [16] (100 mg/kg BID orally, 13 days, vs vehicle control) of 77%. The tolerability entry in [16] (daily oral administration, xenograft models of DLBCL) is given as “well-tolerated”. For the same compound, in series [17], the cellular viability entry is given as “decrease in cellular viability”. For the same compound, in series [17] (48 hours), the apoptosis of cells result was “induced dose-dependent apoptosis”.

These data come from patent US11285132B2, “Uses of indolinone compounds” (Oncternal Therapeutics, Inc., priority 2016, dated 2022).
